Results reported in US20210024507A1, “Compounds” (Step Pharma S.A.S., priority 2018, published 2021).

Tests used:
human CTPS1 [1] = assay: RapidFire/MS-based enzyme selectivity assay, human CTPS1; format: biochemical; conditions: calculated from the CTPS1 and CTPS2 IC50 values
Method: The enzyme inhibitory activities against each target isoform of interest may be determined for the compounds of the invention using an optimised RapidFire high-throughput mass spectrometry (RF/MS) assay format. RF/MS assays for both human CTPS1 and CTPS2 may be performed in assay buffer consisting of 50mM HEPES (Merck), 20mM MgCl2, 5mM KCI, 1mM DTT, 0.01% Tween-20, pH to 8.0 accordingly. Human full-length active C-terminal FLAG-His-tag CTPS1 (UniProtKB - P17812, CTPS[1-591]-[…]) may be obtained from Proteros biostructures GmbH. Human full length active C-terminal FLAG-His-Avi tagged CTPS2 (UniProtKB-Q9NRF8, CTPS2 [1-586]- […]) may be obtained from Harker Bio.
Human CTPS (1 or 2) protein may be prepared in lx assay buffer to the final working protein concentration required for the reaction. A 2uL volume per well of 2× CTPS (1 or 2) protein may be mixed with 40nL of compound using acoustic (ECHO) delivery and incubated for 10 minutes at 25° C. Each isoform enzymatic reaction may be subsequently initiated by addition of 2uL per well of a 2× substrate mix in assay buffer. For hCTPS1: ATP (0.3mM), UTP (0.2mM), GTP (0.07mM) and L-glutamine (0.1mM). For hCTPS2: ATP (0.1mM), UTP (0.04mM), GTP (0.03mM) and L-glutamine (0.1mM). Each mixture may be incubated for an appropriate amount of time per isoform within the determined linear phase of the reaction at 25° C. A 60uL volume of stop solution (1% formic acid with 0.5uM ^13C9-^15N3-CTP in H2O) may be added and the plate immediately heat-sealed and centrifuged for 10 minutes at 4,000rpm. Following centrifugation, plates may be loaded onto the Agilent RapidFire microfluidic solid phase extraction system coupled to an AP14000 triple quadrupole mass spectrometer (RF/MS) for analysis.
In all cases, the enzyme converts UTP to CTP. Highly specific and sensitive multiple reaction monitoring (MRM) MS methods may be optimised for the detection of the enzymatic reaction product, CTP, and the stable isotope labelled product standard ^13C9-^15N3-CTP. Readout for data analysis may be calculated as the ratio between the peak area of the product CTP and the internal standard ^13C9-^15N3-CTP. For data reporting, the following equation may be used:
[formula] (R=ratio/readout, P=product signal area, IS=internal standard signal area)
For each screening plate, the means of the negative (DMSO) and positive control values were used for the calculation of the respective assay window (S/B) and Z′ values. The median of the respective control values was used for calculation of percent inhibition according to the following equation:
[formula] (I=Inhibition, Rneg=median of negative control readout values, Rpos=median of positive control readout values, Rsample=sample readout value)
(§1) Percentage inhibition was then plotted against compound concentration, and the 50% inhibitory concentration (IC50) was determined from the resultant concentration-response curve.
Fold selectivity between CTPS1 and CTPS2 was subsequently calculated according to the following equation: […]

human CTPS1 [2] = biological target: T1, human CTPS1 (Homo sapiens, UniProt P17812); assay: Human CTPS1 enzyme inhibition (ADP-Glo Max assay); format: biochemical; conditions: human full length CTPS1, 25° C., read-out: CTPS1 (Human CTPS1 Enzyme Inhibition, IC50 grouped by potency range)
T1 construct: purchased Proteros biostructures GmbH
T1 sequence (P17812 1-591): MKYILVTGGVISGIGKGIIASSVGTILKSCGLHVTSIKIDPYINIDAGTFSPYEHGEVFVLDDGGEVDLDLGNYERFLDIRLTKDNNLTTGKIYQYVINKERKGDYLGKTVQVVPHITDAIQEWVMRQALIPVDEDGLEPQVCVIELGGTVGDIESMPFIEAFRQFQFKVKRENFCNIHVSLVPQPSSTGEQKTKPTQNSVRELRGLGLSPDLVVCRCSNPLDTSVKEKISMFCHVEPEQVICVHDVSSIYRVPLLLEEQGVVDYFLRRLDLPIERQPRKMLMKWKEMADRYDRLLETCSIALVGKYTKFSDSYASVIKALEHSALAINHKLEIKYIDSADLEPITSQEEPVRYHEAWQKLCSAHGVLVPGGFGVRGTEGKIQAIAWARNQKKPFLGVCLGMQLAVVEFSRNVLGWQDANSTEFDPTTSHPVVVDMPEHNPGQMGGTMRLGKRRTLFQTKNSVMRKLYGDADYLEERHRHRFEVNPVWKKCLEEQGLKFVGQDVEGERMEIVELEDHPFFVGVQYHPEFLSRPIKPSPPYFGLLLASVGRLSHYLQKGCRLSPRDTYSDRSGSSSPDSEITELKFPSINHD
Method: The enzyme inhibitory activities of compounds invented against the target of interest were determined using the ADP-GIoTM Max assay (Promega, UK). Assays for human CTPS1 were performed in lx assay buffer containing 50mM Tris, 10mM MgCl2, 0.01% Tween-20, pH to 8.0 accordingly. Finally, immediately before use, L-cysteine was added to the lx assay buffer to a final concentration of 2mM. All reagents are from Sigma-Aldrich unless specified otherwise. Human full length active C-terminal FLAG-Hiss-tag CTPS1 (UniProtKB - P17812, CTPS[1-591]-[…]) was obtained from Proteros biostructures GmbH.
Assay Procedure 3× human CTPS1 protein was prepared in lx assay buffer to the final working protein concentration required for the reaction. A 2uL volume per well of 3x human CTPS1 protein was mixed with 2uL per well of 3× test compound (compound prepared in lx assay buffer to an appropriate final 3× compound concentration respective to the concentration response curve designed for the compounds under test) for 10 minutes at 25° C. The enzymatic reaction was then initiated by addition of a 2uL per well volume of a pre-mixed substrate mix (UltraPure ATP from ADP-GIo™ Max kit (0.31mM), GTP (0.034mM), UTP (0.48mM) and L-glutamine (0.186mM)) and the mixture was incubated for an appropriate amount of time within the determined linear phase of the reaction at 25° C. under sealed plate conditions with constant agitation at 500 revolutions per minute (rpm). ADP-GIo™ Max reagent was added for 60 minutes ([…] per well) and subsequently ADP-GIo™ Max development reagent was added for 60 minutes (12uL per well) prior to signal detection in a microplate reader (EnVision® Multilabel Reader, Perkin Elmer). Following each reagent addition over the course of the assay, assay plates were pulse centrifuged for 30 seconds at 500rpm.
In all cases, the enzyme converts ATP to ADP and the ADP-GIo™ Max reagent subsequently depletes any remaining endogenous ATP in the reaction system. The ADP-GIo™ Max detection reagent converts the ADP that has been enzymatically produced back into ATP and using ATP as a substrate together with luciferin for the enzyme luciferase, light is generated which produces a detectable luminescence. […] The percentage inhibition produced by each concentration of compound was calculated using the equation shown below: […]
as §1

Row | SMILES | Selectivity (fold selectivity between CTPS1 and CTPS2) (human CTPS1 [1]) | IC50 (human CTPS1 [2])
1 | CCOc1cncc(-c2ccc(NC(=O)C(C)(CCOC)c3cncc(NS(=O)(=O)C4CC4)n3)nc2)n1 (stereo not drawn) [P198, 2-(6-(cyclopropanesulfonamido)pyrazin-2-yl)-N-(5-(6-ethoxypyrazin-2-yl)pyridin-2-yl)-4-methoxy-2-methylbutanamide] | +++ (>60 fold (+++)) | ≤ 100 nM
2 | CCC(C(=O)Nc1ccc(-c2cncc(C(F)(F)F)n2)cc1)c1ccnc(NS(=O)(=O)C2CC2)n1 (stereo not drawn) [P103, 2-(2-(cyclopropanesulfonamido)pyrimidin-4-yl)-N-(4-(6-(trifluoromethyl)pyrazin-2-yl)phenyl)butanamide] | + (2-30 fold (+)) | 100 to 1000 nM
3 | CCOc1cncc(-c2ccc(NC(=O)C(F)(CC)c3cncc(NS(=O)(=O)C4CC4)n3)nc2)n1 (single isomer, unassigned) [P207, 2-(6-(cyclopropanesulfonamido)pyrazin-2-yl)-N-(5-(6-ethoxypyrazin-2-yl)pyridin-2-yl)-2-fluorobutanamide] | + (2-30 fold (+)) | ≤ 100 nM
4 | CCOc1cncc(-c2ccc(NC(=O)C(F)(CC)c3ccnc(NS(=O)(=O)C4CC4)n3)nc2)n1 (single isomer, unassigned) [P113, 2-(2-(cyclopropanesulfonamido)pyrimidin-4-yl)-N-(5-(6-ethoxypyrazin-2-yl)pyridin-2-yl)-2-fluorobutanamide] | + (2-30 fold (+)) | ≤ 100 nM
5 | CCC(C(=O)Nc1ccc(-c2cncc(OC)n2)cc1F)c1ccnc(NS(=O)(=O)C2CC2)n1 (stereo not drawn) [P95, 2-(2-(cyclopropanesulfonamido)pyrimidin-4-yl)-N-(2-fluoro-4-(6-methoxypyrazin-2-yl)phenyl)butanamide] | + (2-30 fold (+)) | ≤ 100 nM
6 | CCOc1cncc(-c2ccc(NC(=O)C(CC)c3cccc(NS(=O)(=O)C4CC4)n3)cc2)n1 (stereo not drawn) [P191, 2-(6-(cyclopropanesulfonamido)pyridin-2-yl)-N-(4-(6-ethoxypyrazin-2-yl)phenyl)butanamide] | ++ (>30-60 fold (++)) | 100 to 1000 nM
7 | CCOc1cncc(-c2ccc(NC(=O)C(C)(C)c3nc(NS(=O)(=O)C4CC4)ncc3C)cc2)n1 [P70, 2-(2-(cyclopropanesulfonamido)-5-methylpyrimidin-4-yl)-N-(4-(6-ethoxypyrazin-2-yl)phenyl)-2-methylpropanamide] | + (2-30 fold (+)) | –
8 | CCOc1cncc(-c2ccc(NC(=O)C(C)(C)c3ccnc(NS(=O)(=O)C4CC4)n3)nc2)n1 [P31, 2-(2-(cyclopropanesulfonamido)pyrimidin-4-yl)-N-(5-(6-ethoxypyrazin-2-yl)pyridin-2-yl)-2-methylpropanamide] | +++ (>60 fold (+++)) | –
9 | CCOc1cncc(-c2ccc(NC(=O)C3(c4ccnc(NS(=O)(=O)C5CC5)n4)CCCC3)cc2)n1 [P2, 1-(2-(Cyclopropanesulfonamido)pyrimidin-4-yl)-N-(4-(6-ethoxypyrazin-2-yl)phenyl)cyclopentanecarboxamide] | +++ (>60 fold (+++)) | –
10 | CC(C)Oc1cncc(-c2ccc(NC(=O)Cc3ccnc(NS(=O)(=O)C4CC4)n3)c(F)c2)n1 [P12, 2-(2-(cyclopropanesulfonamido)pyrimidin-4-yl)-N-(2-fluoro-4-(6-isopropoxypyrazin-2-yl)phenyl)acetamide] | ++ (>30-60 fold (++)) | –
11 | CCOc1cncc(-c2ccc(NC(=O)C(C)(C)c3cncc(NS(=O)(=O)C4CC4)n3)cc2)n1 [P196, 2-(6-(cyclopropanesulfonamido)pyrazin-2-yl)-N-(4-(6-ethoxypyrazin-2-yl)phenyl)-2-methylpropanamide] | +++ (>60 fold (+++)) | –
12 | CCOc1cncc(-c2ccc(NC(=O)C(C)(C)c3ccnc(NS(C)(=O)=O)n3)nc2)n1 [P76, N-(5-(6-ethoxypyrazin-2-yl)pyridin-2-yl)-2-methyl-2-(2-(methylsulfonamido)pyrimidin-4-yl)propanamide] | ++ (>30-60 fold (++)) | –
13 | CCOc1cncc(-c2ccc(NC(=O)C3(c4ccnc(NS(=O)(=O)C5CC5)n4)CC3)cc2)n1 [P83, 1-(2-(cyclopropanesulfonamido)pyrimidin-4-yl)-N-(4-(6-ethoxypyrazin-2-yl)phenyl)cyclopropanecarboxamide] | +++ (>60 fold (+++)) | –
14 | CCOc1cncc(-c2ccc(NC(=O)C3(c4ccnc(NS(=O)(=O)C5CC5)n4)CCCC3)nc2)n1 [P136, 1-(2-(cyclopropanesulfonamido)pyrimidin-4-yl)-N-(5-(6-ethoxypyrazin-2-yl)pyridin-2-yl)cyclopentane-1-carboxamide] | +++ (>60 fold (+++)) | –
15 | CCOc1cncc(-c2ccc(NC(=O)C(C)(OC)c3cncc(NS(=O)(=O)C4CC4)n3)nc2)n1 (single isomer, unassigned) [P205a, 2-(6-(cyclopropanesulfonamido)pyrazin-2-yl)-N-(5-(6-ethoxypyrazin-2-yl)pyridin-2-yl)-2-methoxypropanamide] | +++ (>60 fold (+++)) | –
